Tested on: serum lipids and serum lipid hydroperoxide
Assay: Pharmacological test method A for anti-hyperlipidemic activity (serum lipids, 2 weeks feeding)
Assay type: in vivo, male Wistar strain rats
Conditions: for AI [(TC - HDL-C)/(HDL-C)] / HDL-C in serum / LPO in serum / PL in serum / TC in serum / TG in serum: 1% in hyperlipidemic diet, 2 weeks; for AI % of diff. / AI Diff. / HDL-C % of diff. / HDL-C Diff. / LPO % of diff. / LPO Diff. / PL % of diff. / PL Diff. / TC % of diff. / TC Diff. / TG % of diff. / TG Diff.: versus control group
Method: Male Wistar strain rats (100±lg, each 10 rats were formed into a group) were used as test animals. Diet for the control group was prepared by thorough mixing of 20% casein, 62.5% glucose, 10% hydrogenated coconut oil, 2% agar powder, 4% vitamin-containing salt mixture, 1% cholesterol, and 0.5% cholic acid (this composition is described by Fukushima et al, in "Yakugaku Zassi", 89, No. 6, pp. 857-862 (1962)). Diet for the test groups was prepared by good mixing of 1% each of cycloartenol, 24-methylenecycloartanol, and cyclobranol with the control group's diet. Each rat was kept in a cage at a constant temperature of 23±1° C. and a constant R.H. of 55±5% for 2 weeks, during which 10 g/day of the prescribed was given. Finally the rats were fasted from food except water for 16 hours (from 4 p.m. of the 14th test day to 8 a.m. of the 15th test day), and under anesthesia with pentbarbital sodium (tradename: Nembutal), blood was taken from each rat through the descending abdominal arota. Then, TC, HDL-C, TG, PL, and LPO in the serum were measured in the manner that will be described below.
A TC kit-K (supplied by Nippon Shoji Kaisha, Ltd.) was used. The principle of this determination is as follows: The ester of cholesterol in the serum is hydrolyzed with cholesterol-ester hydrolase into free cholesterol and fatty acids. All the free cholesterol is oxidized with cholesterol oxydase to form Δ^4 -cholestenone and hydrogen peroxide. Phenol and 4-aminoantipyrin are oxidatively condensed together by the formed hydrogen peroxide and peroxydase. The produced red quinone coloring matter is measured by colorimetry for absorbance at 500 nm using a spectrophotometer, thereby determining the TC:
The color-developing liquid (3.0 ml) is well mixed with the sample serum (0.02 ml). The mixture once heated at 37° C. for 15 minutes, is measured for absorbance at 500 nm with a spectrophotometer. The found absorbance is denoted by EA. On the other hand, the color-developing liquid (3.0 ml) is well mixed with the standard solution. The mixture is treated and measured for absorbance at 500 nm in the same manner as the above. This found absorbance is denoted by ES. Both EA and ES are determined with reference to the value of the blank test conducted using the color-developing liquid (3.0 ml) alone. [formula]
An HDL-C kit-N (supplied by Nippon Shoji Kaisha, Ltd.) was used. […] (VLDL) and lo density lipoprotein (LDL) in the serum is precipitated by the action of heparin. The precipitate is separated by centrifugation. High density lipoprotein (HDL) is dissolved in the separated supernatant. Esters of cholesterol in this fraction is hydrolyzed with cholesterol-ester hydrolase into free cholesterol and fatty acids. All the free cholesterol is oxidized with cholesterol oxydase to form Δ^4 -cholestenone and hydrogen peroxide. Phenol and 4-aminoantipyrine are oxidatively condensed together by the formed hydrogen peroxide and peroxydase. The produced red quinone coloring matter is measured by colorimetry for absorbance at 500 nm using a spectrophotometer, thereby determining the HDL-C.
A PL kit-K (supplied by Nippon Shoji Kaisha, Ltd.) was used for the determination. Lecithin, sphingomyelin, and lysolecithin are decomposed by phospholipase D into choline and phosphatidic acid, N-acylsphingosyl phosphate, or lysophosphatidic acid, respectively. The resulting choline is quantitatively decomposed by choline oxydase into hydrogen peroxide and betaine. With this hydrogen peroxide, and aid of peroxydase, phenol and 4-aminoantipyrin are condensed into red quinone pigment, then the absorbance at 500 nm of which is measured with a spectrophotometer, thereby determining the PL.
Serum TG level was determined by means of a triglyceride test kit (supplied by Wako Pure Chemical Industries, Ltd.) in which acetylacetone is used for a reagent, in the following manner: Serum proteins are precipitated, when isopropyl alcohol and the sample serum are mixed. […]

Row | Structure (SMILES) | AI [(TC - HDL-C)/(HDL-C)] | HDL-C in serum [mg/dL] | LPO in serum [nmol/mL] | PL in serum [mg/dL] | TC in serum [mg/dL] | TG in serum [mg/dL] | AI % of diff. [%] | AI Diff. | HDL-C % of diff. | HDL-C Diff. | LPO % of diff. [%] | LPO Diff. [nmol/mL] | PL % of diff. [%] | PL Diff. [mg/dL] | TC % of diff. [%] | TC Diff. [mg/dL] | TG % of diff. [%] | TG Diff. [mg/dL]
1 | CC(C)=CCCC(C)C1CCC2(C)C3CCC4C(C)(C)C(OC(=O)c5cccnc5)CCC45CC35CCC12C (stereo not drawn) [Example 24, cycloartenyl nicotinate] | 0.748 | 94.0 | 1.93 | 133.8 | 164.3 | 34.7 | -38.8 | -0.474 | +8.7% | +7.5 mg/dl | -13.7 | -0.31 | -22.5 | -38.8 | -14.5 | -27.9 | 4.3 | -1.6
2 | CC(C)=CCCC(C)C1CCC2(C)C3CCC4C(C)(C)C(OC(=O)C=Cc5cccc(N)c5)CCC45CC35CCC12C (stereo not drawn) [Example 108, cycloartenyl ester of m-aminocinnamic acid] | 3.627 | 46.6 | 2.20 | 151.4 | 215.6 | 29.0 | -53.7 | -4.213 | +26.3% | +9.7 mg/dl | -21.4 | -0.60 | -8.6 | -14.2 | -33.9 | -110.6 | -14.7 | -5.0
3 | C=C(CCC(C)C1CCC2(C)C3CCC4C(C)(C)C(OC(=O)C=Cc5ccc(O)c(O)c5)CCC45CC35CCC12C)C(C)C (stereo not drawn) [Example 82, 24-Methylenecycloartanyl ester of 3,4-dihydroxycinnamic acid] | 1.228 | 87.9 | 2.08 | 173.9 | 195.8 | 42.3 | -27.1 | -0.456 | +8.7% | +7.0 mg/dl | -9.8 | -0.23 | -3.2 | -5.8 | -9.8 | -21.3 | -1.2 | -0.5
4 | COc1cc(C=CC(=O)OC2CCC34CC35CCC3(C)C(C(C)CCC=C(C)C)CCC3(C)C5CCC4C2(C)C)ccc1O (stereo not drawn) [Example 100-1, cycloartenyl-4-hydroxy-3-methoxycinnamate] | 1.204 | 79.1 | 1.51 | 150.0 | 174.3 | 28.3 | -20.6 | -0.313 | -3.0% | -2.4 mg/dL | -33.5 | -0.76 | -13.3 | -23.1 | -15.0 | -30.8 | -17.6 | -6.0
5 | CCCCC/C=C\C/C=C\CCCCCCCC(=O)OC1CCC23CC24CCC2(C)C(C(C)CCC(C)=C(C)C)CCC2(C)C4CCC3C1(C)C (stereo not drawn) [Example 51, cyclobranyllinolate] | 0.623 | 96.4 | 1.69 | 146.0 | 156.5 | 34.7 | -49.0 | -0.599 | +11.5% | +9.9 mg/dl | -24.4 | -0.55 | -15.4 | -26.6 | -18.6 | -35.7 | -4.3 | -1.6
6 | CC(C)=CCCC(C)C1CCC2(C)C3CCC4C(C)(C)C(OC(=O)c5ccc(O)c(O)c5)CCC45CC35CCC12C (stereo not drawn) [Example 27, cycloartenyl-3,4-dihydroxybenzoate] | 0.955 | 95.2 | 1.99 | 160.3 | 186.1 | 40.4 | -43.3 | -0.729 | +17.7% | +14.3 mg/dl | -14.0 | -0.32 | -10.8 | -19.4 | -14.3 | -31.0 | -5.5 | -2.4
7 | CCCCC/C=C\C/C=C\CCCCCCCC(=O)OC1CCC23CC24CCC2(C)C(C(C)CCC=C(C)C)CCC2(C)C4CCC3C1(C)C (stereo not drawn) [Example 25, cycloartenyl linolate] | 0.705 | 92.3 | 1.67 | 144.6 | 157.4 | 34.0 | -42.3 | -0.517 | +6.7% | +5.8 mg/dl | -25.6 | -0.57 | -16.2 | -28.0 | -18.1 | -34.8 | -6.2 | -2.3
8 | CC(C)=CCCC(C)C1CCC2(C)C3CCC4C(C)(C)C(OC(=O)c5cccc(N)c5)CCC45CC35CCC12C (stereo not drawn) [Example 23, cycloartenyl-m-aminobenzoate] | 1.506 | 58.9 | 2.06 | 133.1 | 147.6 | 20.2 | -18.5 | -0.341 | +0.3% | +0.2 mg/dl | -12.0 | -0.28 | -10.3 | -15.3 | -11.7 | -19.5 | -18.5 | -4.6
9 | CC(C)=C(C)CCC(C)C1CCC2(C)C3CCC4C(C)(C)C(OC(=O)c5cccnc5)CCC45CC35CCC12C (stereo not drawn) [Example 50, cyclobranylnicotinate] | 0.697 | 95.7 | 1.87 | 138.8 | 162.4 | 34.7 | -43.0 | -0.525 | 10.6% | +9.2 mg/dl | -16.7 | -0.37 | -19.6 | -33.8 | -15.5 | -29.8 | -4.3 | -1.6

Source: patent US4748161A, “Triterpenyl esters of organic acids and hypolipidemic agents composed of them” (Amano Pharmaceutical Co., Ltd., priority 1984, dated 1988)
